Assay results as given in US8754234B2, “Chiral 2-(benzylsulfinyl)thiazole derivatives and 2-[(1H-pyrazol-4-ylmethyl)sulfinyl]thiazole derivatives, processes for their preparation and their use as herbicides and plant growth regulators” (Bayer Cropscience AG, priority 2007, dated 2014).

Columns and labels:
Assay type in all cases: in vivo
[1] = tested on: Avena fatua, Stellaria media, Echinochloa crus galli, Lolium multiflorum, Setaria viridis, Abutilon theophrasti, Amaranthus retroflexus, Viola tricolor …; test: Pre-emergence herbicidal effect, harmful plants; details: pre-emergence method, application rate of 0.32 kg and less of active substance per hectare
From the text: (§1) Seeds of monocotyledonous or dicotyledonous weed plants or crop plants are placed in sandy loam in wood-fiber pots and covered with soil. The compounds according to the invention, formulated in the form of wettable powders (WP), are then applied as aqueous suspension at a water application rate of 600 l/ha (converted) with the addition of 0.2% of wetting agent to the surface of the covering soil. After the treatment, the pots are placed in a greenhouse and kept under good growth conditions for the test plants. After about 3 weeks, the effect of the preparations is scored visually in comparison with untreated controls (herbicidal effect in percent (%): 100% activity=the plants have died, 0% activity=like control plants).

[2] = tested on: Avena fatua, Echinochloa crus galli, Lolium multiflorum, Setaria viridis and Alopecurus myosuroides; test: Post-emergence herbicidal effect, harmful plants; details: post-emergence method, application rate of 0.32 kg and less of active substance per hectare
Procedure: (§2) Seeds of monocotyledonous and dicotyledonous weed and crop plants are placed in sandy loam in wood fibre pots, covered with soil and cultivated in a greenhouse under good growth conditions. 2 to 3 weeks after sowing, the test plants are treated at the one-leaf stage. The compounds according to the invention, formulated in the form of wettable powders (WP), are then applied as aqueous suspension at a water application rate of 600 l/ha (converted) with the addition of 0.2% of wetting agent to the green parts of the plants. After the test plants have been kept in the greenhouse under optimum growth conditions for about 3 weeks, the activity of the preparations is rated visually in comparison to untreated controls (herbicidal activity in percent (%): 100% activity=the plants have died, 0% activity=like control plants).

[3] = tested on: Setaria viridis (green foxtail); test: Post-emergence herbicidal effect, green foxtail; details: after about 3 weeks
Procedure: as §2

[4] = tested on: Lolium multiflorum (Italian ryegrass); test: Post-emergence herbicidal effect, Italian ryegrass; details: after about 3 weeks
Procedure: as §2

Polygunum convolvulus = test: Post-emergence herbicidal effect, Polygunum convolvulus; details: after about 3 weeks
Procedure: as §2

Stellaria media = test: Post-emergence herbicidal effect, Stellaria media; details: after about 3 weeks
Procedure: as §2

Zea mays (corn) = test: Post-emergence crop plant compatibility, corn; details: after about 3 weeks
Procedure: as §2

Avena fatua = test: Post-emergence herbicidal effect, Avena fatua; details: after about 3 weeks
Procedure: as §2

[5] = tested on: Brassica napus (winter rape); test: Pre-emergence crop plant compatibility, winter rape; details: after about 3 weeks
From the text: as §1

[6] = tested on: Alopecurus myosuroides (black-grass); test: Pre-emergence herbicidal effect, black-grass; details: after about 3 weeks
From the text: as §1

[7] = tested on: Lolium multiflorum (Italian ryegrass); test: Pre-emergence herbicidal effect, Italian ryegrass; details: after about 3 weeks
From the text: as §1

[8] = tested on: Setaria viridis (green foxtail); test: Pre-emergence herbicidal effect, green foxtail; details: after about 3 weeks
From the text: as §1

[9] = tested on: Triticum aestivum (summer wheat); test: Pre-emergence crop plant compatibility, summer wheat; details: scored visually after about 3 weeks
From the text: as §1

[10] = tested on: Viola tricolor (wild pansy); test: Pre-emergence herbicidal effect, wild pansy; details: after about 3 weeks
From the text: as §1

[11] = tested on: Echinochloa crus-galli (barnyard grass); test: Pre-emergence herbicidal effect, barnyard grass; details: after about 3 weeks
From the text: as §1

[12] = 20 g of active compound/ha, formula (Ib) table
[13] = 80 g of active compound/ha, formula (Ib) table
[14] = 20 g of active compound/ha, formula (Ia) table
[15] = 80 g of active compound/ha, formula (Ia) table

[O-][S@+](Cc1c(F)cccc1F)c1ncc(Br)s1 [Compound 1449, 5-bromo-2-[(R)-(2,6-difluorobenzyl)sulfinyl]-1,3-thiazole]
herbicidal activity against harmful plants [1]: very good herbicidal activity
herbicidal activity against harmful plants [2]: very good herbicidal activity

Cn1nc(C(F)(F)F)c(C[S@@+]([O-])c2ncc(Br)s2)c1OCC(F)(F)F [Compound 3728]
herbicidal activity in percent, SETVI ([3]; 20 g of active compound/ha): 10%
herbicidal activity in percent, SETVI ([3]; 80 g of active compound/ha): 10%
herbicidal activity against harmful plants [1]: very good herbicidal activity
herbicidal activity in percent, LOLMU ([4]; 20 g of active compound/ha): 0%
herbicidal activity in percent, LOLMU ([4]; 80 g of active compound/ha): 0%
herbicidal activity in percent, POLCO (Polygunum convolvulus; 80 g of active compound/ha): 10%
herbicidal activity in percent, STEME (Stellaria media; 20 g of active compound/ha): 0%
herbicidal activity in percent, STEME (Stellaria media; 80 g of active compound/ha): 10%
herbicidal activity against harmful plants [2]: very good herbicidal activity
herbicidal activity in percent, ZEAMX (Zea mays (corn); 20 g of active compound/ha): 0%
herbicidal activity in percent, ZEAMX (Zea mays (corn); 80 g of active compound/ha): 0%
herbicidal activity in percent, AVEFA (Avena fatua; 20 g of active compound/ha): 0%
herbicidal activity in percent, AVEFA (Avena fatua; 80 g of active compound/ha): 10%

Cn1nc(C(F)(F)F)c(C[S@@+]([O-])c2ncc(Cl)s2)c1OC(F)F [Compound 3643]
herbicidal activity against harmful plants [1]: very good herbicidal activity
herbicidal activity against harmful plants [2]: very good herbicidal activity

Cn1nc(C(F)(F)F)c(C[S@+]([O-])c2ncc(Br)s2)c1OC(F)F [Compound 2637, 5-Bromo-2-[(S)-{[5-(difluoromethoxy)-1-methyl-3-(trifluoromethyl)-1H-pyrazol-4-yl]methyl}sulfinyl]-1,3-thiazole]
herbicidal effect in percent, BRSNW ([5]; 20 g of active compound/ha): 0%
herbicidal effect in percent, BRSNW ([5]; 80 g of active compound/ha): 0%
herbicidal activity against harmful plants [1]: very good herbicidal activity
herbicidal effect in percent, ALOMY ([6]; 20 g of active compound/ha): 60%
herbicidal effect in percent, ALOMY ([6]; 80 g of active compound/ha): 90%
herbicidal effect in percent, LOLMU [7, 12]: 10%
herbicidal effect in percent, LOLMU [7, 13]: 100%
herbicidal effect in percent, SETVI [8, 12]: 80%
herbicidal effect in percent, SETVI [8, 13]: 90%
herbicidal activity against harmful plants [2]: very good herbicidal activity

Cn1nc(C(F)(F)F)c(C[S@+]([O-])c2ncc(Cl)s2)c1OC(F)F [Compound 2555]
herbicidal activity against harmful plants [1]: very good herbicidal activity
herbicidal activity against harmful plants [2]: very good herbicidal activity

Cn1nc(C(F)(F)F)c(C[S@+]([O-])c2ncc(Br)s2)c1OCC(F)(F)F [Compound 2640]
herbicidal activity in percent, SETVI ([3]; 20 g of active compound/ha): 100%
herbicidal activity in percent, SETVI ([3]; 80 g of active compound/ha): 100%
herbicidal activity against harmful plants [1]: very good herbicidal activity
herbicidal activity in percent, LOLMU ([4]; 20 g of active compound/ha): 60%
herbicidal activity in percent, LOLMU ([4]; 80 g of active compound/ha): 100%
herbicidal activity in percent, POLCO (Polygunum convolvulus; 20 g of active compound/ha): 20%
herbicidal activity in percent, POLCO (Polygunum convolvulus; 80 g of active compound/ha): 100%
herbicidal activity in percent, STEME (Stellaria media; 20 g of active compound/ha): 10%
herbicidal activity in percent, STEME (Stellaria media; 80 g of active compound/ha): 90%
herbicidal activity against harmful plants [2]: very good herbicidal activity
herbicidal activity in percent, ZEAMX (Zea mays (corn); 20 g of active compound/ha): 0%
herbicidal activity in percent, ZEAMX (Zea mays (corn); 80 g of active compound/ha): 0%
herbicidal activity in percent, AVEFA (Avena fatua; 20 g of active compound/ha): 20%
herbicidal activity in percent, AVEFA (Avena fatua; 80 g of active compound/ha): 90%

Cn1nc(C(F)(F)F)c(C[S@+]([O-])c2ncc(I)s2)c1OC(F)F [Compound 2719]
herbicidal activity against harmful plants [1]: very good herbicidal activity
herbicidal activity against harmful plants [2]: very good herbicidal activity

[O-][S@+](Cc1c(Cl)cccc1Cl)c1ncc(Cl)s1 [Compound 1375]
herbicidal activity against harmful plants [1]: very good herbicidal activity
herbicidal effect in percent, TRZAS ([9]; 20 g of active compound/ha): 0%
herbicidal effect in percent, TRZAS ([9]; 80 g of active compound/ha): 0%
herbicidal effect in percent, VIOTR ([10]; 20 g of active compound/ha): 60%
herbicidal effect in percent, VIOTR ([10]; 80 g of active compound/ha): 80%
herbicidal effect in percent, LOLMU [7, 14]: 0%
herbicidal effect in percent, LOLMU [7, 15]: 60%
herbicidal effect in percent, SETVI [8, 14]: 0%
herbicidal effect in percent, SETVI [8, 15]: 20%
herbicidal effect in percent, ECHCG ([11]; 20 g of active compound/ha): 0%
herbicidal effect in percent, ECHCG ([11]; 80 g of active compound/ha): 80%
herbicidal activity against harmful plants [2]: very good herbicidal activity

Cn1nc(C(F)(F)F)c(C[S@@+]([O-])c2ncc(Br)s2)c1OC(F)F [Compound 3725, 5-bromo-2-[(R)-{[5-(difluoromethoxy)-1-methyl-3-(trifluoromethyl)-1H-pyrazol-4-yl]methyl}sulfinyl]-1,3-thiazole]
herbicidal effect in percent, BRSNW ([5]; 20 g of active compound/ha): 0%
herbicidal effect in percent, BRSNW ([5]; 80 g of active compound/ha): 0%
herbicidal activity against harmful plants [1]: very good herbicidal activity
herbicidal effect in percent, ALOMY ([6]; 20 g of active compound/ha): 0%
herbicidal effect in percent, ALOMY ([6]; 80 g of active compound/ha): 20%
herbicidal effect in percent, LOLMU [7, 12]: 0%
herbicidal effect in percent, LOLMU [7, 13]: 0%
herbicidal effect in percent, SETVI [8, 12]: 0%
herbicidal effect in percent, SETVI [8, 13]: 0%
herbicidal activity against harmful plants [2]: very good herbicidal activity

[O-][S@@+](Cc1c(Cl)cccc1Cl)c1ncc(Cl)s1 [Compound 185]
herbicidal activity against harmful plants [1]: very good herbicidal activity
herbicidal effect in percent, TRZAS ([9]; 20 g of active compound/ha): 0%
herbicidal effect in percent, TRZAS ([9]; 80 g of active compound/ha): 10%
herbicidal effect in percent, VIOTR ([10]; 20 g of active compound/ha): 60%
herbicidal effect in percent, VIOTR ([10]; 80 g of active compound/ha): 70%
herbicidal effect in percent, LOLMU [7, 14]: 70%
herbicidal effect in percent, LOLMU [7, 15]: 90%
herbicidal effect in percent, SETVI [8, 14]: 70%
herbicidal effect in percent, SETVI [8, 15]: 100%
herbicidal effect in percent, ECHCG ([11]; 20 g of active compound/ha): 90%
herbicidal effect in percent, ECHCG ([11]; 80 g of active compound/ha): 100%
herbicidal activity against harmful plants [2]: very good herbicidal activity

[O-][S@@+](Cc1c(F)cccc1F)c1ncc(Br)s1 [Compound 259, 5-Bromo-2-[(S)-(2,6-difluorobenzyl)sulfinyl]-1,3-thiazole]
herbicidal activity against harmful plants [1]: very good herbicidal activity
herbicidal activity against harmful plants [2]: very good herbicidal activity

Cn1nc(C(F)(F)F)c(C[S@@+]([O-])c2ncc(Br)s2)c1Cl [Compound 3720, 5-bromo-2-[(R)-{[5-chloro-1-methyl-3-(trifluoromethyl)-1H-pyrazol-4-yl]methyl}sulfinyl]-1,3-thiazole]
herbicidal activity against harmful plants [1]: very good herbicidal activity
herbicidal activity against harmful plants [2]: very good herbicidal activity

Cn1nc(C(F)(F)F)c(C[S+]([O-])c2ncc(Br)s2)c1OC(F)F (racemic) [Racemate of 2637 (S config.) and 3725 (R config.), 5-bromo-2-({[5-(difluoromethoxy)-1-methyl-3-(trifluoromethyl)-1H-pyrazol-4-yl]methyl}sulfinyl)-1,3-thiazole]
herbicidal effect in percent, BRSNW ([5]; 20 g of active compound/ha): 0%
herbicidal effect in percent, BRSNW ([5]; 80 g of active compound/ha): 0%
herbicidal effect in percent, ALOMY ([6]; 20 g of active compound/ha): 30%
herbicidal effect in percent, ALOMY ([6]; 80 g of active compound/ha): 90%
herbicidal effect in percent, LOLMU [7, 12]: 0%
herbicidal effect in percent, LOLMU [7, 13]: 80%
herbicidal effect in percent, SETVI [8, 12]: 0%
herbicidal effect in percent, SETVI [8, 13]: 80%

Cn1nc(C(F)(F)F)c(C[S@+]([O-])c2ncc(Br)s2)c1Cl [Compound 2632, 5-Bromo-2-[(S)-{[5-chloro-1-methyl-3-(trifluoromethyl)-1H-pyrazol-4-yl]methyl}sulfinyl]-1,3-thiazole]
herbicidal activity against harmful plants [1]: very good herbicidal activity
herbicidal activity against harmful plants [2]: very good herbicidal activity

[O-][S@+](Cc1c(Cl)cccc1Cl)c1ncc(Br)s1 [Compound 1460]
herbicidal activity against harmful plants [1]: very good herbicidal activity

[O-][S@@+](Cc1c(Cl)cccc1Cl)c1ncc(Br)s1 [Compound 270]
herbicidal activity against harmful plants [1]: very good herbicidal activity
herbicidal activity against harmful plants [2]: very good herbicidal activity
